{"source": "patent US10869879B2", "about": "“Combinations to treat cancer” (EVOL SCIENCE LLC, priority 2017, dated 2020)", "key": {"[1]": {"tested_on": "pancreatic cancer cells (BxPC3M1, BxPC3, Panc1, MiaPaca2)", "format": "cell-based", "settings": "vemurafenib 10 μM versus DMSO, all 4 cell lines, n=3"}, "[2]": {"tested_on": "SK-MEL-28VR1 vs SK-MEL-28 cells", "settings": "vemurafenib treatment, SK-MEL-28VR1 compared to parental SK-MEL-28"}, "[3]": {"tested_on": "BxPC3M1, BxPC3, Panc1, and MiaPaca2", "experiment": "Cell proliferation assay", "format": "cell-based", "settings": "vemurafenib 10 μM, all 4 cell lines (WT BRAF)", "procedure": "FIG. 9A, FIG. 9B, FIG. 9C, FIG. 9D, FIG. 9E, FIG. 9F, FIG. 9G and FIG. 9H illustrate vemurafenib induced cell proliferation and serine synthesis in pancreatic cancer cell lines. FIG. 9A: Cell proliferation assay of BxPC3 cells treated with vemurafenib (10 μM). 100000 cells plated on day 0. FIG. 9B: Cell proliferation assay of BxPC3M1 cells treated with vemurafenib (10 μM). 100000 cells plated on day 0. FIG. 9C: Cell proliferation assay of Panc1 cells treated with vemurafenib (10 μM). 100000 cells plated on day 0. FIG. 9D: Cell proliferation assay of MiaPaca2 cells treated with vemurafenib (10 μM). 100000 cells plated on day 0. FIG. 9E: Mass spectrometry: PHGDH protein expression in pancreatic cancer cells treated with DMSO or vemurafenib (10 μM) (n=3). FIG. 9F: Mass spectrometry: PSAT1 protein expression in pancreatic cancer cells treated with DMSO or vemurafenib (10 μM) (n=3). FIG. 9G: Mass spectrometry: PSPH protein expression in pancreatic cancer cells treated with DMSO or vemurafenib (10 μM) (n=3). FIG. 9H: Mass spectrometry: SARS protein expression in pancreatic cancer cells treated with DMSO or vemurafenib (10 μM) (n=3).\nNext, we tested the effect of vemurafenib treatment on pancreatic cancer cell proliferation. All 4 of the cell lines (BxPC3M1, BxPC3, Panc1, and MiaPaca2) tested express WT BRAF. […]"}, "[4]": {"tested_on": "SK-MEL-28 cells", "experiment": "Mass spectrometry, FAM129B protein abundance", "format": "cell-based", "settings": "parental SK-MEL-28 cells", "procedure": "(§1) FIG. 5A and FIG. 5B illustrate a characterization of SK-MEL-28VR1 cells. FIG. 5A: Unbiased Mass spectrometry: FAM129B protein abundance following differential treatments of SK-MEL-28 and SK-MEL-28VR1 cells (n=3). FIG. 5B: illustrates a characterization of SK-MEL-28VR1 cells. Western blot of PHGDH protein expression in differentially treated SK-MEL-28 and SK-MEL-28VR1 cells. Alpha tubulin used as loading control. 50 μg of protein loaded in each lane.\n(§2) Samples were dried down and re-dissolved in 2.5% ACN/0.1% formic acid for liquid chromatography-tandem mass spectrometry (LC-MS/MS) analysis carried out on a Q-Exactive HF (Thermo Fisher Scientific) coupled with a U3000 RSLCnano HPLC device (Thermo Fisher Scientific). 5 μL of sample were loaded onto a C18 trap column (PepMap100; 300-μm i.d.×5 mm, 5-μm particle size, 100 Å; Thermo Fisher Scientific) at a flow rate of 10 μL min^−1. […] The runs were analyzed using Progenesis-QI for Proteomics (Nonlinear dynamics). […] The peptide and protein quantification used a synthetic control peptide for normalization across the samples. […]"}, "[5]": {"tested_on": "SK-MEL-28 cells", "experiment": "Colony formation assay", "format": "cell-based", "settings": "Homo sapiens, parental cell line, FIG. 4B, read-out: IC50 of vemurafenib, colony formation", "procedure": "(§3) For colony formation assays, 400 cells per well were seeded into 24-well plates on day 0. Cells were treated with DMSO or gemcitabine at various doses on day 1 for 24 hours. Gemcitabine was washed out on day 2, vemurafenib, dabrafenib, and methotrexate was added. On day 4, drugs added on day 2 was washed out. Cells were allowed to grow for a subsequent 7 days before being fixed (10% methanol+10% acetic acid) and stained with crystal violet (0.4% in 20% ethanol) for quantitation as previously described.\nAll proteomic trend plots were constructed using the Evol Science suite (ES). Volcano plotting serves to visually separate data points in two axes by both their expression ratio and their statistical significance. This enables a simple method of determining the most significant, differentially expressed proteins within a given comparison. For each protein, replicate values are gathered from each experiment to be compared to create two distributions of values. Student's T-Test of identical mean is used between the two independent samples of values to compare the distributions and generate a p-value of statistical significance. The −log 10 of the p-value is then taken to provide the Y coordinate, in graphical view. The X coordinate, Ratio, is given by the log 10 of the average of replicate ratio values for a given experiment. […]"}, "[6]": {"tested_on": "SK-MEL-28VR1 cells", "experiment": "Mass spectrometry, FAM129B protein abundance", "format": "cell-based, human", "settings": "FIG. 5A, n=3", "procedure": "as §1, §2"}, "[7]": {"tested_on": "BxPC3M1 cells", "experiment": "Colony formation assay", "format": "cell-based, human", "settings": "vemurafenib 5 μM, glucose, and glycine depleted media, not with complete media", "procedure": "as §3\n(§4) All proteomic trend plots were constructed using the Evol Science suite (ES). Volcano plotting serves to visually separate data points in two axes by both their expression ratio and their statistical significance. This enables a simple method of determining the most significant, differentially expressed proteins within a given comparison. For each protein, replicate values are gathered from each experiment to be compared to create two distributions of values. Student's T-Test of identical mean is used between the two independent samples of values to compare the distributions and generate a p-value of statistical significance. The −log 10 of the p-value is then taken to provide the Y coordinate, in graphical view. The X coordinate, Ratio, is given by the log 10 of the average of replicate ratio values for a given experiment. Combination Index calculations, Fa-CI plots, and isobolograms were constructed using the Compusyn software program using the Chou-Tulalay method. All plots representing colony formation assays were constructed using the Prism7 software (Graphpad.com). Two-way Anova tests were used to calculate p values."}, "[8]": {"tested_on": "SK-MEL-28VR1 cells", "experiment": "Colony formation assay", "format": "cell-based, human", "settings": "for cell death with serine depletion: glucose, and glycine depleted media, not with complete media", "procedure": "as §3, §4"}}, "data": [{"smiles": "CCCS(=O)(=O)Nc1ccc(F)c(C(=O)c2c[nH]c3ncc(-c4ccc(Cl)cc4)cc23)c1F", "note": "[vemurafenib, Vemurafenib]", "values": [{"measurement": "PHGDH, PSAT1, PSPH, and SARS protein abundance", "setting": "[1]", "value": "increased"}, {"measurement": "Fold differential, ASNS", "setting": "[2]; protein ASNS", "value": 8, "unit": "fold"}, {"measurement": "Fold differential, CYP51A1", "setting": "[2]; protein CYP51A1", "value": 8, "unit": "fold"}, {"measurement": "Fold differential, DUS2", "setting": "[2]; protein DUS2", "value": 7, "unit": "fold"}, {"measurement": "Fold differential, FAM129B", "setting": "[2]; protein FAM129B", "value": 9, "unit": "fold"}, {"measurement": "Fold differential, KRT19", "setting": "[2]; protein KRT19", "value": 5, "unit": "fold"}, {"measurement": "Fold differential, LARS2", "setting": "[2]; protein LARS2", "value": 6, "unit": "fold"}, {"measurement": "Fold differential, MPHOSPH6", "setting": "[2]; protein MPHOSPH6", "value": 9, "unit": "fold"}, {"measurement": "Fold differential, MRPL13", "setting": "[2]; protein MRPL13", "value": 2, "unit": "fold"}, {"measurement": "Fold differential, PDLIM7", "setting": "[2]; protein PDLIM7", "value": 9, "unit": "fold"}, {"measurement": "Fold differential, PHGDH", "setting": "[2]; protein PHGDH", "value": 2, "unit": "fold"}, {"measurement": "Fold differential, PPP1R7", "setting": "[2]; protein PPP1R7", "value": 8, "unit": "fold"}, {"measurement": "Fold differential, PSAT1", "setting": "[2]; protein PSAT1", "value": 8, "unit": "fold"}, {"measurement": "Fold differential, PSPH", "setting": "[2]; protein PSPH", "value": 5, "unit": "fold"}, {"measurement": "Fold differential, RUVBL1", "setting": "[2]; protein RUVBL1", "value": 3, "unit": "fold"}, {"measurement": "Fold differential, S100A11", "setting": "[2]; protein S100A11", "value": 8, "unit": "fold"}, {"measurement": "Fold differential, SARS2", "setting": "[2]; protein SARS2", "value": 4, "unit": "fold"}, {"measurement": "Fold differential, SARS", "setting": "[2]; protein SARS", "value": 6, "unit": "fold"}, {"measurement": "Fold differential, SBDS", "setting": "[2]; protein SBDS", "value": 10, "unit": "fold"}, {"measurement": "Fold differential, SPATA20", "setting": "[2]; protein SPATA20", "value": 12, "unit": "fold"}, {"measurement": "Fold differential, TXNDC17", "setting": "[2]; protein TXNDC17", "value": 2, "unit": "fold"}, {"measurement": "cell proliferation under vemurafenib treatment", "setting": "[3]", "value": "increased proliferation"}, {"measurement": "FAM129B abundance in response to vemurafenib treatments", "setting": "[4]", "value": "decreased"}, {"measurement": "IC50", "setting": "[5]", "value": "~1", "unit": "µM"}, {"measurement": "Cytoplasmic FAM129B abundance increase, vemurafenib compared to vehicle treatment", "setting": "[6]", "value": "~6", "unit": "fold"}, {"measurement": "cell death with serine depleted media", "setting": "[7]", "value": "> 50", "unit": "%"}, {"measurement": "IC50", "setting": "[8]; Homo sapiens, data not shown, read-out: IC50 of vemurafenib, colony formation", "value": "~30", "unit": "µM"}, {"measurement": "cell death with serine depletion", "setting": "[8]; vemurafenib 2.5 μM", "value": "> 50", "unit": "%"}, {"measurement": "cell death with serine depletion", "setting": "[8]; vemurafenib 5 μM", "value": "> 50", "unit": "%"}]}]}
